Assays:
[1] = target: T1, Leukotriene B4 receptor 1 (Homo sapiens, UniProt Q15722); experiment: Inhibitory concentration against human leukotriene B4 receptor using competing agent [3H]-LTB4 as radioligand in pH 7.2 buffer, for 1 hr at 37 degree C
[2] = target: T1, Leukotriene B4 receptor 1; experiment: Inhibitory concentration against human leukotriene B4 receptor using competing agent [3H]-LTB4 as radioligand in pH 7.2 buffer upon incubation for 1 hr at 37 degree C; (n=4)
[3] = target: T1, Leukotriene B4 receptor 1; experiment: Inhibitory concentration against human leukotriene B4 receptor using competing agent [111In]-(17)] as radioligand in pH 7.2 buffer, for 1 hr at 37 degree C; (n=2)
[4] = target: T1, Leukotriene B4 receptor 1; experiment: Inhibitory concentration against human leukotriene B4 receptor using competing agent [3H]-LTB4 as radioligand in pH 7.2 buffer, for 1 h at 37 degree C; (n=2)

T1 sequence (Q15722 whole entry): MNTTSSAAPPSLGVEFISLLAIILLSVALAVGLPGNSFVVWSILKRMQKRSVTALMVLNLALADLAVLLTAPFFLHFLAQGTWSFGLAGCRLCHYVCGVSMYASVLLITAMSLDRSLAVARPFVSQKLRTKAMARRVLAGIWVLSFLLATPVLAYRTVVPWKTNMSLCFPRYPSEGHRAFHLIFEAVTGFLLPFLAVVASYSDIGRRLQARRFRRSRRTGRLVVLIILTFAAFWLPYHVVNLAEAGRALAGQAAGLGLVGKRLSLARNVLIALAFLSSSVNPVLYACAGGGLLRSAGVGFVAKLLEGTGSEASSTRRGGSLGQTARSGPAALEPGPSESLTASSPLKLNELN

SMILES | IC50 [3] | IC50 [4] | other results
CC(C)(CCCCOc1cc(-c2ccccc2)cc(-c2ccccc2)n1)c1nnn[nH]1 | – | – | IC50 [1]: 20 nM
CC(C)(CCCCOc1cc(-c2ccccc2)cc(-c2ccccc2)n1)c1nnnn1CCCCC(=O)NCCCOCCOCCOCCCNC(=O)c1ccc(N/N=C/c2ccccc2S(=O)(=O)O)nc1 | 44 nM | – | IC50 [2]: 45 nM
CC(C)(CCCCOc1cc(-c2ccccc2)cc(-c2ccccc2)n1)c1nnnn1CCCCC(=O)NCCCOCCOCCOCCCNC(=O)[C@H](CS(=O)(=O)O)NC(=O)[C@H](CS(=O)(=O)O)NC(=O)[C@H](CS(=O)(=O)O)NC(=O)[C@H](CS(=O)(=O)O)NC(=O)c1ccc(N/N=C/c2ccccc2)nc1 | 16 nM | – | –
CC(C)(CCCCOc1cc(-c2ccccc2)cc(-c2ccccc2)n1)c1nnnn1CCCCC(=O)NCCCOCCOCCOCCCNC(=O)[C@H](CS(=O)(=O)O)NC(=O)[C@H](CS(=O)(=O)O)NC(=O)[C@H](CS(=O)(=O)O)NC(=O)[C@H](CS(=O)(=O)O)NC(=O)CC[C@H](N)C(=O)N[C@@H](CS(=O)(=O)O)C(=O)N[C@@H](CS(=O)(=O)O)C(=O)N[C@@H](CS(=O)(=O)O)C(=O)N[C@@H](CS(=O)(=O)O)C(=O)NCCCOCCOCCOCCCNC(=O)CCCCn1nnnc1C(C)(C)CCCCOc1cc(-c2ccccc2)cc(-c2ccccc2)n1 | – | 8 nM | –
CC(C)(CCCCOc1cc(-c2ccccc2)cc(-c2ccccc2)n1)c1nnnn1CCCCC(=O)NCCCOCCOCCOCCCNC(=O)[C@H](CS(=O)(=O)O)NC(=O)[C@H](CS(=O)(=O)O)NC(=O)[C@H](CS(=O)(=O)O)NC(=O)[C@H](CS(=O)(=O)O)NC(=O)CC[C@H](NC(=O)CN(CCN(CCN(CC(=O)O)CC(=O)O)CC(=O)O)CC(=O)O)C(=O)N[C@@H](CS(=O)(=O)O)C(=O)N[C@@H](CS(=O)(=O)O)C(=O)N[C@@H](CS(=O)(=O)O)C(=O)N[C@@H](CS(=O)(=O)O)C(=O)NCCCOCCOCCOCCCNC(=O)CCCCn1nnnc1C(C)(C)CCCCOc1cc(-c2ccccc2)cc(-c2ccccc2)n1 | 30 nM | 54 nM | –
CC(C)(CCCCOc1cc(-c2ccccc2)cc(-c2ccccc2)n1)c1nnnn1CCCCC(=O)NCCCOCCOCCOCCCNC(=O)[C@H](CS(=O)(=O)O)NC(=O)[C@H](CS(=O)(=O)O)NC(=O)[C@H](CS(=O)(=O)O)NC(=O)[C@H](CS(=O)(=O)O)NC(=O)CC[C@H](NC(=O)c1ccc(N/N=C/c2ccccc2)nc1)C(=O)N[C@@H](CS(=O)(=O)O)C(=O)N[C@@H](CS(=O)(=O)O)C(=O)N[C@@H](CS(=O)(=O)O)C(=O)N[C@@H](CS(=O)(=O)O)C(=O)NCCCOCCOCCOCCCNC(=O)CCCCn1nnnc1C(C)(C)CCCCOc1cc(-c2ccccc2)cc(-c2ccccc2)n1 | 230 nM | – | –
